Measured values taken from ChEMBL document CHEMBL4834480, “Discovery of 3,5-Dimethyl-4-Sulfonyl-1H-Pyrrole-Based Myeloid Cell Leukemia 1 Inhibitors with High Affinity, Selectivity, and Oral Bioavailability” (J Med Chem, 2021).
The source made the active and inactive calls. No cut-off for these calls is given here.

Columns and labels:
[1] = biological target: T1, Bcl-2-like protein 2 (Homo sapiens, UniProt Q92843); assay: Binding affinity to human partial length BCLW (M1 to R171 residues) expressed in bacterial expression system by BCL2SCAN assay
T1 sequence (Q92843 whole entry): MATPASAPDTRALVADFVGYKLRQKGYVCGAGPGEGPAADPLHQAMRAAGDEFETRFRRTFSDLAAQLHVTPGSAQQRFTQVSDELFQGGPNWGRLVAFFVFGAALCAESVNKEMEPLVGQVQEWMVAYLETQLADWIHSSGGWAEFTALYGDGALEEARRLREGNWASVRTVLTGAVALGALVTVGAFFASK

[2] = biological target: T2, Bcl-2-related protein A1 (Homo sapiens) (UniProt Q16548); assay: Inhibition of FITC-labeled Bak BH3 peptide binding to GST-tagged BFL1 (1 to 151 residues) (unknown origin) expressed in Escherichia coli BL21 (DE3) at 10 uM incubated for 30 mins fluorescence polarization-based competitive binding assay relative to control
T2 sequence (whole entry): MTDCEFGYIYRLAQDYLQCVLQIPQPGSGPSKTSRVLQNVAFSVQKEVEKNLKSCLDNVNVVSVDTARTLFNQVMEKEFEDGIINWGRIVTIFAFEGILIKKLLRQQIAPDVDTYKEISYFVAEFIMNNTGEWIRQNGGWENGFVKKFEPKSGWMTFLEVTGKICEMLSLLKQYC

[3] = biological target: Apoptosis regulator Bcl-2 (Homo sapiens, UniProt P10415); assay: Binding affinity to human partial length BCL2 (M1 to D211 residues) expressed in bacterial expression system by BCL2SCAN assay
[4] = tested on: K562; assay: Induction of apoptosis in human K562 cells assessed as upregulation of cleaved PARP up to 5 uM measured after 48 hrs by Western blot analysis; format: functional, cell-based; settings: dose microM <=5, time 48.0 hrs
[5] = tested on: NCI-H929; assay: Induction of apoptosis in human NCI-H929 cells assessed as activation of caspase 3 after 4 hrs by luminescence based microplate reader assay; format: functional, cell-based; settings: dose microM <=5, time 4.0 hrs
[6] = Half life in rat liver microsomes; format: ADME, Microsome
[7] = Stability in rat liver microsomes assessed as parent compound remaining preincubated for 5 mins followed by NADPH addition and measured after 30 mins by LC-MS/MS analysis; format: ADME, Microsome; settings: time 35 min, read-out: Stabilty
[8] = Clearance in Sprague-Dawley rat at 10 mg/kg, po measured up to 24 hrs by LC-MS/MS analysis; format: ADME, organism-based; settings: in vivo

Apoptosis regulator Bcl-2, sequence (P10415 whole entry, the tested form may be a part): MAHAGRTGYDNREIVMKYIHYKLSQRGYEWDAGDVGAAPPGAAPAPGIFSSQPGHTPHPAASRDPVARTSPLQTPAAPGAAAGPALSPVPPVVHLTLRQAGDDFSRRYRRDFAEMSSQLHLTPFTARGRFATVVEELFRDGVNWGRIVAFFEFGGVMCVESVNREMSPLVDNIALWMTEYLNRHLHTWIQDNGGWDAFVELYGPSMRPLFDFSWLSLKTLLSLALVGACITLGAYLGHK

CC(=O)c1ccc(S(=O)(=O)c2c(C)c(C(=O)O)n(CCCOc3cc(C)c(Cl)c(C)c3)c2C)cc1
Kd [1]: > 10 µM | inhibition [2]: 1.57% | Kd [3]: > 10 µM | Activity [4]: inactive | Activity [5]: Dose-Dependent Effect | half-life [6]: 45 min | remaining at 0.5 h [7]: 58.1% | CL/F [8]: 36.8 mL/min/kg
